# From BindingDB's records for doi:10.1038/nchembio.155 (University of California San Francisco, 2009)
# pKi: −log10 of the molar value.
# Biological target: Beta-lactamase (Escherichia coli (strain K12), UniProt P00811)
# Experiment: Beta-lactamase AmpC Inhibition Assay
# Details: pH 7
# Description: Class C Beta-lactamase AmpC inhibition assay
# Sequence of Beta-lactamase (P00811 whole entry): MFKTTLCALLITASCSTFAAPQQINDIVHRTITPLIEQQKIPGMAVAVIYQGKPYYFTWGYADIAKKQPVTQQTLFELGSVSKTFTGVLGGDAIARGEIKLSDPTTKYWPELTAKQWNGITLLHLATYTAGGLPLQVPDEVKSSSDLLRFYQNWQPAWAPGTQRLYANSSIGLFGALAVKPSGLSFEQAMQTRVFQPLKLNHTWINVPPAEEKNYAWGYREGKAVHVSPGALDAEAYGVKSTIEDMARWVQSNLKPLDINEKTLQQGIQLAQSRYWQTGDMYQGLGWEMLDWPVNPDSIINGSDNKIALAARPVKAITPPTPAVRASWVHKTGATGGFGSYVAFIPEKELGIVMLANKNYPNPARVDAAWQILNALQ
row,SMILES,pKi
1,O=C1c2ccccc2C(=O)N1CCc1nnn[nH]1 [CID7129233],2.48
2,CCc1c(C)[nH]n(-c2nnn[nH]2)c1=O [CID7357365],2.51
3,O=C(Nc1cccc(-c2nnn[nH]2)c1)c1cccc(F)c1 [CID8067740],2.55
4,C[C@@H](C(=O)O)N1C(=O)C2C3CCC(C3)C2C1=O (stereo partly specified) [CID25181259],2.66
5,O=C(O)CN1C(=O)O[C@@H](c2ccccc2)C1=O [CID25181261],2.46
6,O=c1c2c3c(sc2ncn1Cc1nn[nH]n1)CCCC3 [CID 7263523],2.82
